Literature values as cited in PubChem BioAssay AID1259409 (Chemical Carcinogenesis Research Information System (CCRIS), 2018).

Test system: rodent chemically induced tumor inhibition, incidence and multiplicity
Experiment: CCRIS tumor inhibitor studies

SMILES: Cc1cc(C(C)(C)C)c(O)c(C(C)(C)C)c1
- tumour outcome (control, treated, inhibition, significance) (Carcinogen: 7,12-DIMETHYLBENZ[A]ANTHRACENE, 57-97-6, Dose [Inhibitor]: 200 MG ML 1 ML IN OLIVE OIL ONCE (STUDY DURATION: 18 WK), Route [Inhibitor]: GAVAGE, Species: RAT, Strain/Sex: SPRAGUE-DAWLEY/FEMALE, Target Tissue: Type of Lesion: MAMMARY GLAND: TUMOR, Dose [Carcinogen]: 12 MG IN 1 ML OLIVE OIL ADMINISTERED 1 HR AFTER INHIBITOR, Promoter: NONE USED): 27/34 (79%), 5/18 (28%), 64%, p<0.01
- tumour outcome (control, treated, inhibition, significance) (Carcinogen: 7,12-DIMETHYLBENZ[A]ANTHRACENE, 57-97-6, Dose [Inhibitor]: 1000 UG APPLIED 6 HR BEFORE, 5 MIN BEFORE, AND 6 HR AFTER DMBA (STUDY DURATION: 28 WK), Route [Inhibitor]: DERMAL, Species: MOUSE, Strain/Sex: CD-1/FEMALE, Target Tissue: Type of Lesion: SKIN: PAPILLOMA, Dose [Carcinogen]: 2.56 UG APPLIED ONCE 5 MIN AFTER INHIBITOR, Promoter: 12-O-TETRADECANOYLPHORBOL-13-ACETATE, 16561-29-8): (82%, 35%, 57%, not calculated
- tumour outcome (control, treated, inhibition, significance) (Carcinogen: 7,12-DIMETHYLBENZ[A]ANTHRACENE, 57-97-6, Dose [Inhibitor]: 1000 UG APPLIED ONCE 5 MIN BEFORE DMBA (STUDY DURATION 28 WK), Route [Inhibitor]: DERMAL, Species: MOUSE, Strain/Sex: CD-1/FEMALE, Target Tissue: Type of Lesion: SKIN: PAPILLOMA, Dose [Carcinogen]: 2.56 UG APPLIED ONCE 5 MIN AFTER INHIBITOR, Promoter: 12-O-TETRADECANOYLPHORBOL-13-ACETATE, 16561-29-8): 82%, 57%, 30%, not calculated
- tumour outcome (control, treated, inhibition, significance) (Carcinogen: 7,12-DIMETHYLBENZ[A]ANTHRACENE, 57-97-6, Dose [Inhibitor]: 2500 MG/KG IN DIET STARTING 2 WK BEFORE UNTIL 1 WK AFTER CARCINOGEN ADMINISTRATION (STUDY DURATION: 32 WK), Route [Inhibitor]: ORAL, Species: RAT, Strain/Sex: SPRAGUE-DAWLEY/FEMALE, Target Tissue: Type of Lesion: MAMMARY GLAND: TUMOR, Dose [Carcinogen]: 8 MG IN 1 ML SESAME OIL ADMINISTERED ONCE, Promoter: NONE USED): 88%, 68%, 23%, not significant
- tumour outcome (control, treated, inhibition, significance) (Carcinogen: BENZO[A]PYRENE, 50-32-8, Dose [Inhibitor]: 5 MG/G DIET IN SESAME OIL (4%) 3/WK FOR 28 D SIMULTANEOUSLY WITH CARCINOGEN (STUDY DURATION: 21 WK), Route [Inhibitor]: ORAL, Species: MOUSE, Strain/Sex: A/HEJ/FEMALE, Target Tissue: Type of Lesion: FORESTOMACH: TUMOR, Dose [Carcinogen]: 1 MG/G DIET IN 4% SESAME OIL IN DIET 3/WK FOR 28 D, Promoter: NONE USED): 12/12 (100%), 2/9 (22%), 78%, p<0.001
- tumour outcome (control, treated, inhibition, significance) (Carcinogen: BENZO[A]PYRENE, 50-32-8, Dose [Inhibitor]: 10 MG/G DIET 3/WK FOR 28 D SIMULTANEOUSLY WITH CARCINOGEN (STUDY DURATION: 28 WK), Route [Inhibitor]: ORAL, Species: MOUSE, Strain/Sex: ICR/FEMALE, Target Tissue: Type of Lesion: FORESTOMACH: TUMOR, Dose [Carcinogen]: 0.3 MG/G DIET 3/WK FOR 28 D, Promoter: NONE USED): 13/19 (68%), 10/20 (50%), 26%, not significant
- tumour outcome (control, treated, inhibition, significance) (Carcinogen: DIETHYLNITROSAMINE, 55-18-5, Dose [Inhibitor]: 0, 50 MG/KG IN CORN OIL FOR DURATION OF STUDY BEGINNING 7 D PRIOR TO FIRST CARCINOGEN DOSE (STUDY DURATION: 6 MO), Route [Inhibitor]: GAVAGE, Species: RAT, Strain/Sex: BD6/FEMALE, Target Tissue: Type of Lesion: ESOPHAGUS: TUMOR, Dose [Carcinogen]: 80 MG/KG BW 1/WK FOR 6 WK, Promoter: NONE USED): 14%, 0%, 100%, not significant
- tumour outcome (control, treated, inhibition, significance) (Carcinogen: DIETHYLNITROSAMINE, 55-18-5, Dose [Inhibitor]: 0, 50 MG/KG IN CORN OIL FOR DURATION OF STUDY BEGINNING 7 D PRIOR TO FIRST CARCINOGEN DOSE (STUDY DURATION: 6 MO), Route [Inhibitor]: GAVAGE, Species: RAT, Strain/Sex: BD6/FEMALE, Target Tissue: Type of Lesion: ESOPHAGUS: TUMOR, Dose [Carcinogen]: 80 MG/KG BW 1/WK FOR 8 WK, Promoter: NONE USED): 20%, 4%, 80%, not significant
- tumour outcome (control, treated, inhibition, significance) (Carcinogen: DIETHYLNITROSAMINE, 55-18-5, Dose [Inhibitor]: 0, 50 MG/KG IN CORN OIL FOR DURATION OF STUDY BEGINNING 7 D PRIOR TO FIRST CARCINOGEN DOSE (STUDY DURATION: 6 MO), Route [Inhibitor]: GAVAGE, Species: RAT, Strain/Sex: BD6/FEMALE, Target Tissue: Type of Lesion: LIVER: TUMOR, Dose [Carcinogen]: 80 MG/KG BW 1/WK FOR 6 WK, Promoter: NONE USED): 52%, 23%, 56%, not significant
- tumour outcome (control, treated, inhibition, significance) (Carcinogen: DIETHYLNITROSAMINE, 55-18-5, Dose [Inhibitor]: 0, 50 MG/KG IN CORN OIL FOR DURATION OF STUDY BEGINNING 7 D PRIOR TO FIRST CARCINOGEN DOSE (STUDY DURATION: 6 MO), Route [Inhibitor]: GAVAGE, Species: RAT, Strain/Sex: BD6/FEMALE, Target Tissue: Type of Lesion: LIVER: TUMOR, Dose [Carcinogen]: 80 MG/KG BW 1/WK FOR 8 WK, Promoter: NONE USED): 83%, 72%, 13%, not significant
- tumour outcome (control, treated, inhibition, significance) (Carcinogen: HYDRAZINE SULFATE, 10034-93-2, Dose [Inhibitor]: 5000 PPM IN DIET STARTING 1 WK PRIOR TO ADMINISTRATION OF CARCINOGEN UNTIL END OF EXPERIMENT (STUDY DURATION: APPROXIMAT, Route [Inhibitor]: ORAL, Species: MOUSE, Strain/Sex: SWISS/MALE, FEMALE, Target Tissue: Type of Lesion: LIVER AND LUNG: COMBINED TUMORS, Dose [Carcinogen]: 1.1 MG/D 5 D/WK UNTIL 12 MO OF AGE, Promoter: NONE USED): 24/29 (83%), 19/28 (68%), 18%, not significant
- tumour outcome (control, treated, inhibition, significance) (Carcinogen: ISONIAZID, 54-85-3, Dose [Inhibitor]: 5000 PPM IN DIET STARTING 1 WK PRIOR TO ADMINISTRATION OF CARCINOGEN UNTIL END OF EXPERIMENT (STUDY DURATION: APPROXIMAT, Route [Inhibitor]: ORAL, Species: MOUSE, Strain/Sex: SWISS/MALE, FEMALE, Target Tissue: Type of Lesion: LIVER AND LUNG: COMBINED TUMORS, Dose [Carcinogen]: 1.1 MG/D 5 D/WK UNTIL 25 M OF AGE, Promoter: NONE USED): 16/29 (55%), 4/20 (20%), 64%, p<0.05
- tumour outcome (control, treated, inhibition, significance) (Carcinogen: ISONIAZID, 54-85-3, Dose [Inhibitor]: 5000 PPM IN DIET STARTING 1 WK PRIOR TO ADMINISTRATION OF CARCINOGEN UNTIL END OF EXPERIMENT (STUDY DURATION: APPROXIMAT, Route [Inhibitor]: ORAL, Species: MOUSE, Strain/Sex: SWISS/MALE, FEMALE, Target Tissue: Type of Lesion: LIVER AND LUNG: COMBINED TUMORS, Dose [Carcinogen]: 1.1 MG/D 5 D/WK UNTIL 25 MO OF AGE, Promoter: NONE USED): 16/29 (55%), 5/20 (25%), 54%, p<0.05
- tumour outcome (control, treated, inhibition, significance) (Carcinogen: N-BIS(2-HYDROXYPROPYL)NITROSAMINE, 53609-64-6, Dose [Inhibitor]: 0, 1% IN DIET FOR 30 WK BEGINNING POST CARCINOGEN TREATMENT (STUDY DURATION: 32 WK), Route [Inhibitor]: ORAL, Species: RAT, Strain/Sex: F344/MALE, Target Tissue: Type of Lesion: BLADDER: ADENOMA, Dose [Carcinogen]: 0.1% IN DRINKING WATER FOR 2 WK, Promoter: NONE USED): 5%, 0%, 100%, not calculated
- tumour outcome (control, treated, inhibition, significance) (Carcinogen: N-BIS(2-HYDROXYPROPYL)NITROSAMINE, 53609-64-6, Dose [Inhibitor]: 0, 1% IN DIET FOR 30 WK BEGINNING POST CARCINOGEN TREATMENT (STUDY DURATION: 32 WK), Route [Inhibitor]: ORAL, Species: RAT, Strain/Sex: F344/MALE, Target Tissue: Type of Lesion: KIDNEY: TUMOR, Dose [Carcinogen]: 0.1% IN DRINKING WATER FOR 2 WK, Promoter: NONE USED): 10%, 30%, -200%, not calculated
